# Test results reported in US20260232579A1 (Aspire Biopharma, Inc., priority 2023, published 2026).
# Columns and labels:
# [1] = Determination of pH of aspirin samples (USP <791>); assay type: physicochemical; details: 1861.9 mg sample in 5.0 mL USP water, stirred 15 minutes
# Procedure: Determination of the pH of a solution of a formulation disclosed herein may be accomplished by methods known in the art, e.g., as described herein and by standard protocols, e.g., by protocols described in the United States Pharmacopoeia, Chapter <791>.
# The pH values of aspirin API and batch nos. F22006-001, F22006-004, F22006-002, F22006-003, and F22006-005 were determined using standard protocols as described in the United States Pharmacopoeia, Chapter <791>. […] The pH of the mixture was measured using a Mettler Toledo pH meter.
# [2] = Henderson-Hasselbalch calculation of ionized to non-ionized aspirin at saliva pH
# Source text: In its conjugate base/ionized form, aspirin is unable to efficiently cross the mucous membranes in the oral cavity to enter the blood stream, rendering oral mucosal (e.g., sublingual and/or buccal) delivery of ionized aspirin inefficient. The pH of saliva in the oral cavity ranges between 6.2 to 7.6 (Dawood, […]. Saliva and Oral Health. Int. J. Adv. Res. Biol. Sci. 2018, 5, 1-45) depending on the individual, with an average pH of 6.7. The Henderson-Hasselbalch equation, represented by Equation 2 below, provides the ratio of conjugate base to acid at a given pH of an acid having a given pKa. […] Exemplary calculations are provided below. Using the lower saliva pH limit of 6.2 in equation 1: Using the upper saliva pH limit of 7.6 in equation 1: […]
compound,measurement,setting,value
"CC(=O)Oc1ccccc1C(=O)O [Aspirin, 2-acetoxybenzoic acid]",pH,[1],2.62
same,ionized aspirin molecules for every one molecule of non-ionized aspirin,"[2]; average saliva pH value of 6.7, pKa […]",1584
same,ionized aspirin molecules for every one molecule of non-ionized aspirin,"[2]; lower saliva pH limit of 6.2, pKa […]",501
same,ionized aspirin molecules for every one molecule of non-ionized aspirin,"[2]; upper saliva pH limit of 7.6, pKa […]",12589
